Values after ≈ are worked out from the molar mass of the structure shown.
Columns and labels:
Mannheimia haemolytica = assay: minimum inhibitory concentration (MIC)
Method: (§1)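 Broth microdilution MIC (Sensititre BOPO7F bovine plate, CLSI methods) of 19 antimicrobials against field isolates of P. multocida, M. haemolytica, H. somni (deep nasopharyngeal swabs) and E. coli, Enterococcus spp. (rectal swabs) from weaned dairy heifers. Incubation 16-24 h at 35 C. MIC is the lowest concentration preventing visible growth. Values with <= or > lie at the tested range limits. Trimethoprim-sulfamethoxazole is given as the trimethoprim component of a 1:19 mixture.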

Enterococcus spp. = assay: minimum inhibitory concentration (MIC)
Method: as §1

CCC[C@@H]1C[C@@H](C(=O)N[C@@H]([C@H]2O[C@H](SC)[C@H](O)[C@@H](O)[C@H]2O)[C@H](C)Cl)N(C)C1 [Clindamycin]
minimum inhibitory concentration [µg/mL]
Settings	Enterococcus spp.	Mannheimia haemolytica
isolate (source animal id): 2	≤ 0.25	–
isolate (source animal id): 8	–	16 (≈ 37.6 µM)
isolate (source animal id): 13	–	16 (≈ 37.6 µM)
isolate (source animal id): 18	–	16 (≈ 37.6 µM)
isolate (source animal id): 21	–	16 (≈ 37.6 µM)
isolate (source animal id): 25	–	> 16
isolate (source animal id): 27	–	16 (≈ 37.6 µM)
isolate (source animal id): 28	–	16 (≈ 37.6 µM)
isolate (source animal id): 30	–	16 (≈ 37.6 µM)
isolate (source animal id): 31	–	16 (≈ 37.6 µM)
isolate (source animal id): 32	–	8 (≈ 18.8 µM)
isolate (source animal id): 34	–	16 (≈ 37.6 µM)
isolate (source animal id): 35	> 16	–
isolate (source animal id): 36	–	16 (≈ 37.6 µM)
isolate (source animal id): 37	–	16 (≈ 37.6 µM)
isolate (source animal id): 40	–	8 (≈ 18.8 µM)
isolate (source animal id): 41	–	16 (≈ 37.6 µM)
isolate (source animal id): 42	16 (≈ 37.6 µM)	–
isolate (source animal id): 43	–	16 (≈ 37.6 µM)
isolate (source animal id): 44	16 (≈ 37.6 µM)	–
isolate (source animal id): 46	–	16 (≈ 37.6 µM)
isolate (source animal id): 49	–	16 (≈ 37.6 µM)
isolate (source animal id): 50	–	16 (≈ 37.6 µM)
isolate (source animal id): 51	–	16 (≈ 37.6 µM)
isolate (source animal id): 52	–	16 (≈ 37.6 µM)
isolate (source animal id): 53	–	8 (≈ 18.8 µM)
isolate (source animal id): 55	–	8 (≈ 18.8 µM)
isolate (source animal id): 56	–	16 (≈ 37.6 µM)
isolate (source animal id): 57	–	> 16
isolate (source animal id): 79	16 (≈ 37.6 µM)	–
isolate (source animal id): 88	≤ 0.25	–
isolate (source animal id): 91	≤ 0.25	–
isolate (source animal id): 92	2 (≈ 4.71 µM)	–
isolate (source animal id): 100	–	16 (≈ 37.6 µM)
isolate (source animal id): 103	–	16 (≈ 37.6 µM)
isolate (source animal id): 107	–	16 (≈ 37.6 µM)
isolate (source animal id): 108	–	16 (≈ 37.6 µM)
isolate (source animal id): 111	≤ 0.25	–
isolate (source animal id): 112	–	> 16
isolate (source animal id): 113	–	> 16
isolate (source animal id): 121	–	> 16
isolate (source animal id): 122	> 16	16 (≈ 37.6 µM)
isolate (source animal id): 123	8 (≈ 18.8 µM)	> 16
isolate (source animal id): 126	–	> 16
isolate (source animal id): 133	≤ 0.25	> 16
isolate (source animal id): 135	–	> 16
isolate (source animal id): 138	–	> 16
isolate (source animal id): 141	–	> 16
isolate (source animal id): 142	–	> 16
isolate (source animal id): 145	–	8 (≈ 18.8 µM)
isolate (source animal id): 149	–	8 (≈ 18.8 µM)
isolate (source animal id): 151	–	8 (≈ 18.8 µM)
isolate (source animal id): 152	–	16 (≈ 37.6 µM)
isolate (source animal id): 154	–	8 (≈ 18.8 µM)
isolate (source animal id): 158	> 16	–
isolate (source animal id): 159	–	> 16
isolate (source animal id): 162	–	> 16
isolate (source animal id): 168	≤ 0.25	–
isolate (source animal id): 169	≤ 0.25	–
isolate (source animal id): 170	–	16 (≈ 37.6 µM)
isolate (source animal id): 171	16 (≈ 37.6 µM)	8 (≈ 18.8 µM)
isolate (source animal id): 172	–	16 (≈ 37.6 µM)
isolate (source animal id): 173	–	16 (≈ 37.6 µM)
isolate (source animal id): 175	> 16	–
isolate (source animal id): 177	16 (≈ 37.6 µM)	–
isolate (source animal id): 179	–	8 (≈ 18.8 µM)
isolate (source animal id): 180	–	16 (≈ 37.6 µM)
isolate (source animal id): 181	≤ 0.25	–
isolate (source animal id): 182	≤ 0.25	–
isolate (source animal id): 183	16 (≈ 37.6 µM)	16 (≈ 37.6 µM)
isolate (source animal id): 186	–	8 (≈ 18.8 µM)
isolate (source animal id): 187	≤ 0.25	16 (≈ 37.6 µM)
isolate (source animal id): 188	–	16 (≈ 37.6 µM)
isolate (source animal id): 190	≤ 0.25	16 (≈ 37.6 µM)
isolate (source animal id): 191	–	16 (≈ 37.6 µM)
isolate (source animal id): 192	–	8 (≈ 18.8 µM)
isolate (source animal id): 194	16 (≈ 37.6 µM)	–
isolate (source animal id): 195	≤ 0.25	–
isolate (source animal id): 197	0.5 (≈ 1.18 µM)	–
isolate (source animal id): 201	–	16 (≈ 37.6 µM)
isolate (source animal id): 202	–	8 (≈ 18.8 µM)
isolate (source animal id): 209	–	16 (≈ 37.6 µM)
isolate (source animal id): 211	≤ 0.25	16 (≈ 37.6 µM)
isolate (source animal id): 214	2 (≈ 4.71 µM)	–
isolate (source animal id): 220	–	16 (≈ 37.6 µM)
isolate (source animal id): 221	–	16 (≈ 37.6 µM)
isolate (source animal id): 222	16 (≈ 37.6 µM)	–
isolate (source animal id): 223	8 (≈ 18.8 µM)	8 (≈ 18.8 µM)
isolate (source animal id): 228	2 (≈ 4.71 µM)	–
isolate (source animal id): 230	2 (≈ 4.71 µM)	–
isolate (source animal id): 233	–	16 (≈ 37.6 µM)
isolate (source animal id): 235	> 16	–
isolate (source animal id): 236	8 (≈ 18.8 µM)	–
isolate (source animal id): 237	–	16 (≈ 37.6 µM)
isolate (source animal id): 239	≤ 0.25	–
isolate (source animal id): 241	> 16	16 (≈ 37.6 µM)
isolate (source animal id): 244	16 (≈ 37.6 µM)	–
isolate (source animal id): 246	16 (≈ 37.6 µM)	–
isolate (source animal id): 247	> 16	–
isolate (source animal id): 250	16 (≈ 37.6 µM)	–
isolate (source animal id): 252	> 16	16 (≈ 37.6 µM)
isolate (source animal id): 253	–	16 (≈ 37.6 µM)
isolate (source animal id): 259	–	> 16
isolate (source animal id): 260	–	16 (≈ 37.6 µM)
isolate (source animal id): 262	–	16 (≈ 37.6 µM)
isolate (source animal id): 268	> 16	–
isolate (source animal id): 282	4 (≈ 9.41 µM)	> 16
isolate (source animal id): 285	> 16	–
isolate (source animal id): 287	–	> 16
isolate (source animal id): 288	–	16 (≈ 37.6 µM)
isolate (source animal id): 289	8 (≈ 18.8 µM)	–
isolate (source animal id): 290	16 (≈ 37.6 µM)	–
isolate (source animal id): 291	–	16 (≈ 37.6 µM)
isolate (source animal id): 293	–	> 16
isolate (source animal id): 296	16 (≈ 37.6 µM)	–
isolate (source animal id): 298	≤ 0.25	> 16
isolate (source animal id): 299	–	> 16
isolate (source animal id): 300	–	8 (≈ 18.8 µM)
isolate (source animal id): 301	0.5 (≈ 1.18 µM)	–
isolate (source animal id): 302	–	> 16
isolate (source animal id): 304	–	> 16
isolate (source animal id): 306	–	16 (≈ 37.6 µM)
isolate (source animal id): 308	–	16 (≈ 37.6 µM)
isolate (source animal id): 309	–	16 (≈ 37.6 µM)
isolate (source animal id): 310	> 16	–
isolate (source animal id): 313	–	16 (≈ 37.6 µM)
isolate (source animal id): 318	–	8 (≈ 18.8 µM)
isolate (source animal id): 320	4 (≈ 9.41 µM)	16 (≈ 37.6 µM)
isolate (source animal id): 321	–	16 (≈ 37.6 µM)
isolate (source animal id): 323	–	> 16
isolate (source animal id): 324	–	16 (≈ 37.6 µM)
isolate (source animal id): 326	–	> 16
isolate (source animal id): 328	–	16 (≈ 37.6 µM)
isolate (source animal id): 329	–	16 (≈ 37.6 µM)
isolate (source animal id): 331	8 (≈ 18.8 µM)	–
isolate (source animal id): 333	16 (≈ 37.6 µM)	16 (≈ 37.6 µM)
isolate (source animal id): 335	–	16 (≈ 37.6 µM)
isolate (source animal id): 338	–	16 (≈ 37.6 µM)
isolate (source animal id): 341	> 16	–
